Results reported in PMC2074382 (British Journal of Cancer, 1996).
Where “and” joins values, the source holds several entries; their conditions need not be identical. Equal values may be shown once. Where a name gives a salt, the structure may show the parent alone.

Assay: Pharmacokinetics (lactone form, HPLC, non-compartmental) in plasma and urine, days 1 and 4 of first course
Text: British Journal of Cancer (1996) 73, 744-750 O (C? 1996 Stockton Press All rights reserved 0007-0920/96 $12.00 Phase I and pharmacological study of the new topoisomerase I inhibitor G1147211, using a daily x 5 intravenous administration CJH Gerrits', GJ Creemers', JHM Schellens', P Wissel2, AS Th Planting', R Kunka2, K Selinger2, M de Boer-Dennert', Y Marijnen3, M Harteveld' and J Verweijl 'Department of Medical Oncology, Rotterdam Cancer Institute, Rotterdam, The Netherlands; 2Glaxo Wellcome Inc, Department of Clinical Pharmacology, NC, USA; 3Glaxo Wellcome Inc, Department of Clinical Research, Zeist, The Netherlands. Summary Topoisomerase I inhibitors are interesting anti-cancer agents with a novel mechanism of action. […] In subsequent patient cohorts the dose was escalated from 0.3 to 1.5 mg m-2 day-'. Pharmacokinetics analysis was performed on days 1 and 4 of the first course using a validated high- performance liquid chromatographic assay and non-compartmental methods. […] Its further development was stopped because of unpredictable and severe myelosuppression, gastrointestinal toxicity and haemorrhagic cystitis. In the late 1980s two discoveries brought about a renewal of interest in CPT; firstly, topoisomerase I was identified as the single cellular target of CPT (Hsiang et al., 1985; Hsiang and Liu, 1988) and, secondly, an overexpression of topoisomerase I was found in various tumour cell lines but not in normal tissues (Giovanella et al., 1989; Hirabayaski et al., 1992; Potmesil et al., 1988). Topoisomerase I is a nuclear enzyme that resolves topological problems of the torsionally strained (supercoiled) DNA (Slichenmyer et al., 1993). This is achieved by forming a covalent adduct between topoisome- rase I and the DNA, termed the cleavable complex. This catalytic intermediate creates single-strand DNA breaks, allowing the DNA molecule to rotate around the intact DNA strand at the cleavage site, leading to a relaxation of the DNA molecule and in this way replication, transcription and other DNA functions can proceed. These enzyme- bridged breaks are then resealed by topoisomerase I. CPT stabilises the cleavable complexes, thereby preventing resealing of single-strand DNA breaks in the presence of the drug (Covey et al., 1989; D'Arpa and Liu, 1989; Eng et al., 1988). Cytotoxicity is specific to the S-phase of the cell cycle because the double-strand breaks that occur during this phase are more difficult to repair in the presence of the drug (Horwitz and Horwitz, 1973). […] Other eligibility criteria included: (1) age>, 18 years; (2) an Eastern Cooperative Oncology Group (ECOG) performance status <2; (3) a predicted life expectancy of at least 3 months; (4) no previous anti-cancer therapy for at least 3 weeks (6 weeks for previous nitro- soureas or mitomycin C); (5) adequate haemato- poietic (WBC) 3 x 109 -', ANC > 1.5 x 109 1-' and platelets 100 x 10 1- 1), hepatic (bilirubin within normal limits, AST, ALT and/or alkaline phosphatase < 2.0 x normal), and renal (serum creatinine < 130 imol 1-') functions. All patients gave written informed consent.

[1] = 0.3 mg m-2, day 1, individual patients 1-3 in order
[2] = 0.3 mg m-2, day 1, mean of dose level
[3] = 0.3 mg m-2, day 4, individual patients 1-3 in order
[4] = 0.3 mg m-2, day 4, mean of dose level
[5] = 0.6 mg m-2, day 1, individual patients 4-6 in order
[6] = 0.6 mg m-2, day 1, mean of dose level
[7] = 0.6 mg m-2, day 4, individual patients 4-6 in order
[8] = 0.6 mg m-2, day 4, mean of dose level
[9] = 1.2 mg m-2, day 1, individual patients 7-12 in order
[10] = 1.2 mg m-2, day 1, mean of dose level

With `CC[C@@]1(O)C(=O)OCc2c1cc1n(c2=O)Cc2c-1nc1cc3c(cc1c2CN1CCN(C)CC1)OCCO3` [GI147211, [7 - (methylpiperazinomethylene) - 10,11 - ethylene-dioxy-20(S)] camptothecin dihydrochloride] as the compound, how does the AUCinf [1] read?
The AUCinf was 4.93 ng·h/mL and 4.04 ng·h/mL and 4.77 ng·h/mL.

What about the “Clearance, total plasma clearance” value [1] of the same compound?
The value was 1014 ml min-1 m-2 and 1238 ml min-1 m-2 and 1048 ml min-1 m-2.

What about the Cmax [1] of the same compound?
The Cmax was 3.63 ng/mL and 4.27 ng/mL and 3.73 ng/mL.

And the MRT [1]?
Its MRT is 2.89 h and 1.66 h and 3.33 h.

And the Vdss [1]?
Its Vdss is 161 l m-2 and 104 l m-2 and 194 l m-2.

What about the “t1/2, elimination half-life” value [1] of the same compound?
Its value is 2.96 h and 1.99 h and 2.63 h.

What about the tmax [1] of the same compound?
The tmax was 0.42 h.

What about the “AUCinf, mean” value [2] of the same compound?
The value was 4.58 ng·h/mL.

What about the “Clearance, mean” value [2] of the same compound?
The value was 1100 ml min-1 m-2.

And the “Cmax, mean” value [2]?
The value was 3.88 ng/mL.

And the “MRT, mean” value [2]?
Its value is 2.63 h.

What about the “Vdss, mean” value [2] of the same compound?
Its value is 153 l m-2.

And the “t1/2, mean” value [2]?
Its value is 2.52 h.

What about the “tmax, mean” value [2] of the same compound?
The value was 0.42 h.

What about the AUCinf [3] of the same compound?
The AUCinf was 6.19 ng·h/mL and 6.79 ng·h/mL and 7.46 ng·h/mL.

And the “Clearance, total plasma clearance” value [3]?
Its value is 808 ml min-1 m-2 and 736 ml min-1 m-2 and 670 ml min-1 m-2.

What about the Cmax [3] of the same compound?
The Cmax was 4.73 ng/mL and 4.30 ng/mL and 5.11 ng/mL.

And the MRT [3]?
The MRT was 4.62 h and 4.73 h and 5.30 h.

And the Vdss [3]?
Its Vdss is 207 l m-2 and 199 l m-2 (2×).

What about the “t1/2, elimination half-life” value [3] of the same compound?
Its value is 4.82 h and 2.34 h and 3.81 h.

What about the tmax [3] of the same compound?
Its tmax is 0.25 h (2×) and 0.42 h.

And the “AUCinf, mean” value [4]?
The value was 6.81 ng·h/mL.

What about the “Clearance, mean” value [4] of the same compound?
The value was 738 ml min-1 m-2.

What about the “Cmax, mean” value [4] of the same compound?
The value was 4.71 ng/mL.

What about the “MRT, mean” value [4] of the same compound?
Its value is 4.88 h.

What about the “Vdss, mean” value [4] of the same compound?
The value was 202 l m-2.

And the “t1/2, mean” value [4]?
Its value is 3.65 h.

And the “tmax, mean” value [4]?
Its value is 0.31 h.

What about the AUCinf [5] of the same compound?
Its AUCinf is 10.10 ng·h/mL and 15.63 ng·h/mL and 14.00 ng·h/mL.

What about the “Clearance, total plasma clearance” value [5] of the same compound?
Its value is 990 ml min-1 m-2 and 640 ml min-1 m-2 and 714 ml min-1 m-2.

What about the Cmax [5] of the same compound?
Its Cmax is 9.16 ng/mL and 9.41 ng/mL and 11.46 ng/mL.

And the MRT [5]?
The MRT was 4.01 h and 3.74 h and 3.52 h.

And the Vdss [5]?
Its Vdss is 223 l m-2 and 134 l m-2 and 140 l m-2.

What about the “t1/2, elimination half-life” value [5] of the same compound?
Its value is 3.35 h and 2.81 h and 2.80 h.

And the tmax [5]?
Its tmax is 0.42 h.

And the “AUCinf, mean” value [6]?
The value was 13.25 ng·h/mL.

And the “Clearance, mean” value [6]?
Its value is 781 ml min-1 m-2.

What about the “Cmax, mean” value [6] of the same compound?
The value was 10.01 ng/mL.

And the “MRT, mean” value [6]?
Its value is 3.76 h.

And the “Vdss, mean” value [6]?
The value was 166 l m-2.

What about the “t1/2, mean” value [6] of the same compound?
Its value is 2.98 h.

And the “tmax, mean” value [6]?
Its value is 0.42 h.

What about the AUCinf [7] of the same compound?
The AUCinf was 11.21 ng·h/mL and 15.10 ng·h/mL and 15.94 ng·h/mL.

And the “Clearance, total plasma clearance” value [7]?
Its value is 892 ml min-1 m-2 and 662 ml min-1 m-2.

And the Cmax [7]?
Its Cmax is 7.60 ng/mL and 8.13 ng/mL and 9.29 ng/mL.

What about the MRT [7] of the same compound?
Its MRT is 4.89 h and 5.38 h and 6.35 h.

What about the Vdss [7] of the same compound?
Its Vdss is 246 l m-2 and 203 l m-2 and 224 l m-2.

And the “t1/2, elimination half-life” value [7]?
Its value is 3.42 h and 3.78 h and 4.15 h.

What about the tmax [7] of the same compound?
Its tmax is 0.42 h (2×) and 0.25 h.

What about the “AUCinf, mean” value [8] of the same compound?
The value was 14.08 ng·h/mL.

What about the “Clearance, mean” value [8] of the same compound?
The value was 727 ml min-1 m-2.

And the “Cmax, mean” value [8]?
The value was 8.34 ng/mL.

And the “MRT, mean” value [8]?
The value was 5.54 h.

And the “Vdss, mean” value [8]?
Its value is 224 l m-2.

And the “t1/2, mean” value [8]?
Its value is 3.78 h.

And the “tmax, mean” value [8]?
Its value is 0.36 h.

And the AUCinf [9]?
Its AUCinf is 17.57 ng·h/mL and 24.95 ng·h/mL and 16.70 ng·h/mL and 15.05 ng·h/mL and 19.86 ng·h/mL and 19.42 ng·h/mL.

And the “Clearance, total plasma clearance” value [9]?
Its value is 1138 ml min-1 m-2 and 802 ml min-1 m-2 and 1198 ml min-1 m-2 and 1329 ml min-1 m-2 and 1007 ml min-1 m-2 and 1030 ml min-1 m-2.

And the Cmax [9]?
Its Cmax is 17.33 ng/mL and 11.97 ng/mL and 15.99 ng/mL and 12.83 ng/mL and 14.11 ng/mL and 17.65 ng/mL.

What about the MRT [9] of the same compound?
The MRT was 3.01 h and 5.18 h and 2.94 h and 3.04 h and 3.98 h and 2.66 h.

And the Vdss [9]?
The Vdss was 189 l m-2 and 237 l m-2 and 193 l m-2 and 223 l m-2 and 225 l m-2 and 149 l m-2.

And the “t1/2, elimination half-life” value [9]?
The value was 3.62 h and 4.04 h and 2.54 h and 2.40 h and 5.10 h and 2.97 h.

And the tmax [9]?
Its tmax is 0.42 h (5×) and 0.25 h.

And the “AUCinf, mean” value [10]?
The value was 18.93 ng·h/mL.

And the “Clearance, mean” value [10]?
The value was 1084 ml min-1 m-2.
